The record followed here is patent US20250019379A1, “NEW CRYSTAL FORM OF COMPOUND, AND PREPARATION METHOD THEREFOR AND USE THEREOF” (E-nitiate Biopharmaceuticals (Hangzhou) Co., Ltd, priority 2021, published 2025).

Several values for one entry are separate records, joined by “and”; a condition that tells them apart may be missing. Identical values can stand only once. Marks after values point to notes of the source that are not given here.

In one assay the test system is psoriasis animal model. Description: Psoriasis animal model (imiquimod cream induced). It counts as in vivo, C57/BL 6J mice. Particulars: 30 mg/kg oral twice a day. The text has this: C57/BL 6J mice, 75, female, 7-8 weeks old, weight 18 g-20 g. The animals were from Zhejiang Weitong Lihua Experimental Animal Technology Co., Ltd. (SCXK (Zhejiang) 2019-0001), experimental animal production certificate number 20210107Abzz0619000247; experimental animal use license number: SYXK (Shanghai) 2020-0001 (Via Biotechnology (Shanghai Co., Ltd).
Modeling and administration method: Use depilatory cream to remove hair from an area of about 2 cm×3 cm on the back of each animal. Control the application time of depilatory cream within 2 minutes. Wash the depilated area with warm water, wash off the depilatory agent, and use immediately. Dry the animal's hair with a hair dryer, and place the animal on a constant-temperature electric blanket at 37° C. for 1 h-2 h. After the animal moves freely, it is placed in a cage for normal rearing and recovery for 1 day (if any animal has red, swollen and damaged skin after hair removal, remove it). On the second day, 54 animals with normal skin were selected and randomly grouped according to body weight, with 9 animals in each group, a total of 6 groups. Each animal in the G2-G6 group was evenly applied with 60 mg (60 μL) of 5 wt % imiquimod cream (Aldara) on the back every day for seven consecutive days.
Skin thickness (double-layer): Use a vernier caliper to measure the double-layer thickness of the back skin before drug administration and modeling, and on days 1, 3, 5, and 7 after drug administration.
PASI score: The condition score refers to the clinical PASI scoring standard, and scores three indicators: erythema, scale, and thickness. The total score is 12 points. The scoring standards are as follows:
Erythema: 0 points, none; 1 points, slight: light red; 2 points, moderate: red; 3 points, significant: dark red; 4 points, very obvious: extremely deep red.
Scaling: 0 points, none; 1 point, slight: there are scales on part of the epidermis, mainly fine scales; 2 points, moderate: most of the skin surface is completely or incompletely covered with scales, in a flaky form; 3 points, Significant: almost all skin is covered with scales, and the scales are thick and layered; 4 points, very obvious: all the skin is covered with scales, and the scales are thick and layered.
Plaque thickening degree: 0 points, none: flush with normal skin; 1 points, slight: slightly higher than the skin surface: 2 points, moderate: moderately raised, with round or sloped plaque edges; 3 points, obvious Score: The plaque is hypertrophic and the bulge is obvious; 4 points, very significant: it is highly thickened and the bulge is very obvious.
Skin proliferation inhibition rate (%)=1−[(skin thickness of the treatment group on the 7th day−skin thickness of the blank control group on the 7th day)/skin thickness of the negative control group on the 7th day−skin thickness of the blank control group on the 7th day)]%.
All data are expressed as Mean t SEM. The statistical analysis software SPSS23.0 was used to conduct normal distribution and homogeneity of variance tests on the data. Based on the results, the single-factor analysis of variance method was selected and the homogeneity of variance test was selected based on the results. *P<0.05 will be considered a statistically significant difference.

Assay [1] relates to atopic dermatitis animal model. Kind of assay: Atopic dermatitis animal model (dinitrochlorobenzene induced). It counts as in vivo, BALB/C mice. To be noted: for Inhibition rate of auricular thickening / Inhibition rate of skin thickening: 10th day of treatment. An excerpt:
BALB/C mice, 55 pieces, female, were 6 weeks old at the time of purchase and 8 weeks old at the time of experiment, weighing 18 g-20 g. The animals were from Shanghai Lingchang Biotechnology Co, Ltd (SCXK (Shanghai) 2018-0003), experimental animal production certificate number 20180003012342: experimental animal use license number; SYXK(Shanghai)2020-0001 (Via Biotechnology (Shanghai) Ltd.).
Modeling and administration method; Use depilatory cream to remove the hair of an area of about 5 cm×2 cm from the top of the head to the back of each animal. The application time of the depilatory cream should be controlled within 2 minutes. Wash the depilated area with warm water and wash off the depilatory agent, immediately use a hair dryer to dry the animal's hair, and place the animal on a 37° C. constant-temperature electric blanket for 1 h-2 h. After the animal moves freely, place it in a breeding cage and recover for 1 day (if the animal's skin is red, swollen and damaged after hair removal, it will its elimination). On the second day, 42 animals with normal skin were selected and randomly divided into groups according to body weight, with 6 animals in each group, totaling 7 groups. Except for the G1 normal control group, each animal in the other groups was evenly smeared with 200 μL of 0.5 wt % dinitrochlorobenzene solution (the solvent was acetone and olive oil with a mass ratio of 3:1) on the back and auricle for three consecutive days every day. Induction (the first stage of induction), the second stage of induction started after 14 days, and was induced with 1 wt % dinitrochlorobenzene solution (the solvent was acetone and olive oil with a mass ratio of 3:1) every three days until the end of the experiment, start treatment and administration at the same time, and group administration is shown in Table 6.
Skin thickness (double layer): Use a vernier caliper to measure the double layer thickness of the back skin on the 1 day before modeling, and on the 14th, 17th, 20th, 23rd, 26th, and 28th days after modeling.
Auricle thickness: Use a vernier caliper to measure the thickness of the right auricle 1 day before modeling, and on days 14, 17, 20, 23, 26, and 28 after modeling.
AD-SI score: The condition score refers to the clinical SI scoring standard, and scores three indicators: skin color/erythema, scaly erythema, scaly/peeling/lichenification, thickening, and thickening/edema degree. The total score is 12 points. Scoring standard as follows:
Erythema/skin color: 0 points, none; 1 points, slight: light red; 2 points, moderate: red; 3 points, significant: dark red; 4 points, very obvious: extremely deep red.
Scaling/peeling/lichenification: 0 points, none; 1 point, slight: there are scales/peeling/lichenification on part of the epidermis, mainly subtle; 2 points, moderate: most of the skin surface is completely or incompletely covered with Scaling/peeling/lichenification, flaky; 3 points, significant: almost all skin is covered with scales/peeling/lichenification, and the scales/peeling/lichenification are thick and layered; 4 points, very obvious: all skin is covered with Scaling/peeling/lichenification, very thick and layered.
Thickening/edema: 0 points, none: flush with normal skin; 1 points, slight: slightly higher than the normal skin surface: 2 points, moderate: moderately raised, with round or sloped plaque edges: 3 points, obvious Score: The plaque is hypertrophic and the bulge is obvious; 4 points, very significant: it is highly thickened and the bulge is very obvious. Skin/auricle hyperplasia inhibition rate (%)=1−[(skin/auricle thickness of the treatment group−skin/auricle thickness of the blank control group)/skin/auricle thickness of the negative control group−skin/auricle of the blank control group thickness)]%.
All data are expressed as Mean±SD or Mean±SEM. Use the statistical analysis software SPSS23.0 to conduct normal distribution and homogeneity of variance tests on the data. […]

Where [2] appears, read: 30 mg/kg oral twice a day, Day 0.
Setting [3] is: 30 mg/kg oral twice a day, Day 1.
Setting [4] is: 30 mg/kg oral twice a day, Day 4.
The mark [5] stands for this setting: 30 mg/kg oral twice a day, Day 7.
The mark [6] stands for this setting: 30 mg/kg oral twice a day, Day 10.
The mark [7] stands for this setting: 10 mg/kg oral twice a day, Day 0.
[8] abbreviates: 10 mg/kg oral twice a day, Day 1.
Setting [9] is: 10 mg/kg oral twice a day, Day 4.
Setting [10] is: 10 mg/kg oral twice a day, Day 7.
[11] abbreviates: 10 mg/kg oral twice a day, Day 10.

Consider `C[C@@H]1CCN(C(=O)CC#N)C[C@@H]1N(C)c1ncnc2[nH]ccc12` [Tofacitinib, reference compound], for which the “Inhibition rate of skin thickening” value is recorded as 69.2% in the assay with psoriasis animal model (7th day of treatment) and 27.86% in assay [1] (30 mg/kg oral twice a day). Also, the “Average skin thickness (double layer)” value is 0.51 ± 0.01 mm with psoriasis animal model (Day 0); 0.66 ± 0.02 mm in the assay with psoriasis animal model (Day 1); 1.28 ± 0.09** mm in the assay with psoriasis animal model (Day 3); 1.09 ± 0.06*** mm in the assay with psoriasis animal model (Day 5); 1.05 ± 0.04*** mm and 1.05 mm with psoriasis animal model (Day 7); 0.63 ± 0.03 mm in assay [1] (setting [2]). Also, the “Average skin thickness (double layer)” value in assay [1] (setting [3]) is 0.99 ± 0.03 mm; in assay [1] (setting [4]), 1.13 ± 0.1 mm; in assay [1] (setting [5]) it was 1.78 ± 0.11 mm; in assay [1] (setting [6]), 2.08 ± 0.13 mm and 2.08 mm. In addition, the PASI score in the assay with psoriasis animal model (Day 0) is 0.0 points; in the assay on psoriasis animal model (Day 1) it was 0.0 points; with psoriasis animal model (Day 3), 4.6 ± 0.50 points; in the assay on psoriasis animal model (Day 5), 4.9 ± 0.42*** points; in the assay with psoriasis animal model (Day 7), 2.8 ± 0.43*** points. For the same compound, the “Inhibition rate of auricular thickening” value in assay [1] (30 mg/kg oral twice a day) stood at 25.86%. The AD-SI score was found to be 0.00 points in assay [1] (setting [2]); 0.00 points in assay [1] (setting [3]); 0.17 ± 0.41 points in assay [1] (setting [4]); 7.17 ± 0.98 points in assay [1] (setting [5]); 6.33 ± 1.37 points in assay [1] (setting [6]). Moreover, the Average auricle thickness is 0.19 ± 0.01 mm in assay [1] (setting [2]); 0.22 ± 0.01 mm in assay [1] (setting [3]); 0.28 ± 0.01 mm in assay [1] (setting [4]); 0.44 ± 0.03 mm in assay [1] (setting [5]); 0.64 ± 0.05 mm and 0.64 mm in assay [1] (setting [6]).

In the case of `CC[C@@H]1CN(C(=O)NCC(F)(F)F)C[C@@H]1c1cnc2cnc3[nH]ccc3n12` [Upatinib, Upadacitinib, reference compound], the “Inhibition rate of auricular thickening” value in assay [1] (10 mg/kg oral twice a day) came out at 24.14%. For the same compound, the “Inhibition rate of skin thickening” value in assay [1] (10 mg/kg oral twice a day) was 20.40%. The AD-SI score in assay [1] (setting [7]) is 0.00 points; in assay [1] (setting [8]), 0.00 points; in assay [1] (setting [9]), 1.00 ± 0.00 points; in assay [1] (setting [10]), 6.50 ± 1.05 points; in assay [1] (setting [11]), 7.17 ± 1.47 points. Also, the Average auricle thickness in assay [1] (setting [7]) is 0.20 ± 0.01 mm; in assay [1] (setting [8]) it was 0.24 ± 0.01 mm; in assay [1] (setting [9]), 0.32 ± 0.03**^ mm; in assay [1] (setting [10]) it was 0.51 ± 0.05 mm; in assay [1] (setting [11]), 0.65 ± 0.03 mm and 0.65 mm. Also, the “Average skin thickness (double layer)” value in assay [1] (setting [7]) is 0.60 ± 0.02 mm; in assay [1] (setting [8]) it was 0.89 ± 0.04 mm; in assay [1] (setting [9]), 1.07 ± 0.05 mm; in assay [1] (setting [10]), 2.06 ± 0.25 mm; in assay [1] (setting [11]), 2.23 ± 0.14 mm and 2.23 mm.
